Data on 18 compounds can be found in ChEMBL document CHEMBL1201862, “PubChem BioAssay data set” (2004).

Assay [1] in a line: Luminescence Cell-Based Dose Response HTS to Identify Inhibitors of 5'UTR Stem-Loop Driven Prion Protein mRNA Translation in H4 Neuroglioblastoma Cells. [Related pubchem assays: 1827 (Project Summary), 1813 (Primary HTS)]. The format is functional.
The nature of assay [2]: alpha-synuclein stem-loop luciferase translation blockers – H4 neuroglioma cells, luminescence, confirmation (AID 1988). Type of assay: functional, cell-based.
A short description of assay [3]: HEK-293T viability loss after treatment – luminescence, T-cell screen hits, cytotoxicity control for TCR NF-kB inhibitor project, dose response (AID 489026).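 Further: cells exposed to compound about 14 hours before the viability readout.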 The format is functional, cell-based.
Assay [4] is described as follows: luciferase reporter signal suppression in cells – H4 neuroglioma cells, luminescence, dose response (AID 1990). The format is functional, cell-based.
Assay [5] can be described thus: cells. Type of assay: functional, cell-based.
Assay [6] is described as follows: cells. Type of assay: functional, cell-based. This is another data set of the same source.
The nature of assay [7]: cells. The format is functional.
The nature of assay [8]: microbe, parasite or virus in culture. The format is functional. The note with it: Mycobacterium tuberculosis.
The target of assay [9] is T1, Fatty acid synthase (Homo sapiens, UniProt P49327). As to the kind of experiment: inhibition of human FAS-TE enzyme activity – biochemical, kinetic fluorescence intensity, dose response (AID 624326).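 Further: rate of fluorescence rise from hydrolysis of a fluorogenic O-methyl fluorescein ester substrate.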 Type of assay: functional.
Assay [10] deals with T1, Fatty acid synthase. As to the kind of experiment: inhibition of human FAS-TE enzyme activity – biochemical, endpoint fluorescence intensity, uHTS hits, dose response (AID 624327).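 Further: fluorescence from hydrolysis of an O-methyl fluorescein acyl ester substrate by the enzyme.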 The format is functional.
Assay [11] can be described thus: Luminescence Cell-Based Dose Confirmation HTS to Identify Inhibitors of Platelet Dense Granule Release. [Related pubchem assays: 1663 (Primary HTS), 1678 (Summary of Project)]. The format is functional.
Assay [12] deals with Luciferin 4-monooxygenase (Photinus pyralis, UniProt P08659). The assay can be described thus: inhibition of purified Photinus pyralis luciferase – biochemical, luminescence, dose response (AID 1891).
Assay [13] deals with Genome polyprotein (dengue virus type 2, UniProt P29990). The assay can be described thus: flavivirus cap methylation enzyme inhibition – biochemical, confirmation dose response, primary screen (AID 588689). The format is functional.
Assay [14] deals with H4. As to the kind of experiment: Luminescence Cell-Based Dose Response HTS to Identify Activators of 5'UTR Stem-Loop Driven Prion Protein mRNA Translation in H4 Neuroglioblastoma Cells. [Related pubchem assays: 1829 (Project Summary), 1814 (Primary HTS)]. The format is functional. The settings on record: Homo sapiens.
The nature of assay [15]: Luminescence Cell-Based Dose Confirmation HTS to Identify Activators of 5'UTR Stem-Loop Driven Alpha-Synuclein mRNA Translation in H4 Neuroglioblastoma Cells. [Related pubchem assays: 1829 (Project Summary), 1814 (Primary HTS)]. Type of assay: functional.
A short description of assay [16]: Luminescence Cell-Based Dose Response HTS to Identify Activators of Luciferase Translation or Activity in H4 […] Cells. [Related pubchem assays: 1829 (Project Summary), 1814 (Primary HTS)]. Type of assay: functional.
In assay [17] the target is Cytochrome P450 3A4 (Homo sapiens, UniProt P08684). The settings on record: Potency.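 Further: confirmatory qHTS run detecting inhibitors and substrates of CYP3A4.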
Assay [18] addresses Induced myeloid leukemia cell differentiation protein Mcl-1 (Homo sapiens, UniProt Q07820). The format is functional.
Assay [19] deals with T2, Heat shock factor protein 1 (Mus musculus, UniProt P38532).
T2 sequence (P38532 whole entry): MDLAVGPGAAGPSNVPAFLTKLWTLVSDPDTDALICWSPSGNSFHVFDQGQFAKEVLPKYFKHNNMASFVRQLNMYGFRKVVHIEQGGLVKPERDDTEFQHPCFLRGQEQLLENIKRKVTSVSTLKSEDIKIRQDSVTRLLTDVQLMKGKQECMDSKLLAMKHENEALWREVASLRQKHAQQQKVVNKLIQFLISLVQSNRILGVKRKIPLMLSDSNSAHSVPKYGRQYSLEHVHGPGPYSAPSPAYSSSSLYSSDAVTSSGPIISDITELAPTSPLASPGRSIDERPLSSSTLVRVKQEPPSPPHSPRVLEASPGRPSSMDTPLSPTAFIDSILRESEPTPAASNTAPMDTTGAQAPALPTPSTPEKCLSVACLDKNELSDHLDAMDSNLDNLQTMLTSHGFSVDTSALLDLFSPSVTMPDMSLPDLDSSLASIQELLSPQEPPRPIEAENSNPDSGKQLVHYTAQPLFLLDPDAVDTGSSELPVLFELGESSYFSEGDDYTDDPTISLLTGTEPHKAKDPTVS
As to the kind of experiment: decrease of HSF1-responsive luciferase luminescence – cell-based, NIH3T3, dose retest, confirmation (AID 2382).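 Further: NIH3T3 fibroblasts with HSF1-driven luciferase reporter stressed by proteasome inhibitor MG132; luminescence from HSF1-driven luciferase expression after 8 hours of MG132 stress.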 The format is functional.

Assay [20] deals with T3, Histone-lysine N-methyltransferase NSD2 (Homo sapiens, UniProt O96028).
T3 sequence (O96028 whole entry): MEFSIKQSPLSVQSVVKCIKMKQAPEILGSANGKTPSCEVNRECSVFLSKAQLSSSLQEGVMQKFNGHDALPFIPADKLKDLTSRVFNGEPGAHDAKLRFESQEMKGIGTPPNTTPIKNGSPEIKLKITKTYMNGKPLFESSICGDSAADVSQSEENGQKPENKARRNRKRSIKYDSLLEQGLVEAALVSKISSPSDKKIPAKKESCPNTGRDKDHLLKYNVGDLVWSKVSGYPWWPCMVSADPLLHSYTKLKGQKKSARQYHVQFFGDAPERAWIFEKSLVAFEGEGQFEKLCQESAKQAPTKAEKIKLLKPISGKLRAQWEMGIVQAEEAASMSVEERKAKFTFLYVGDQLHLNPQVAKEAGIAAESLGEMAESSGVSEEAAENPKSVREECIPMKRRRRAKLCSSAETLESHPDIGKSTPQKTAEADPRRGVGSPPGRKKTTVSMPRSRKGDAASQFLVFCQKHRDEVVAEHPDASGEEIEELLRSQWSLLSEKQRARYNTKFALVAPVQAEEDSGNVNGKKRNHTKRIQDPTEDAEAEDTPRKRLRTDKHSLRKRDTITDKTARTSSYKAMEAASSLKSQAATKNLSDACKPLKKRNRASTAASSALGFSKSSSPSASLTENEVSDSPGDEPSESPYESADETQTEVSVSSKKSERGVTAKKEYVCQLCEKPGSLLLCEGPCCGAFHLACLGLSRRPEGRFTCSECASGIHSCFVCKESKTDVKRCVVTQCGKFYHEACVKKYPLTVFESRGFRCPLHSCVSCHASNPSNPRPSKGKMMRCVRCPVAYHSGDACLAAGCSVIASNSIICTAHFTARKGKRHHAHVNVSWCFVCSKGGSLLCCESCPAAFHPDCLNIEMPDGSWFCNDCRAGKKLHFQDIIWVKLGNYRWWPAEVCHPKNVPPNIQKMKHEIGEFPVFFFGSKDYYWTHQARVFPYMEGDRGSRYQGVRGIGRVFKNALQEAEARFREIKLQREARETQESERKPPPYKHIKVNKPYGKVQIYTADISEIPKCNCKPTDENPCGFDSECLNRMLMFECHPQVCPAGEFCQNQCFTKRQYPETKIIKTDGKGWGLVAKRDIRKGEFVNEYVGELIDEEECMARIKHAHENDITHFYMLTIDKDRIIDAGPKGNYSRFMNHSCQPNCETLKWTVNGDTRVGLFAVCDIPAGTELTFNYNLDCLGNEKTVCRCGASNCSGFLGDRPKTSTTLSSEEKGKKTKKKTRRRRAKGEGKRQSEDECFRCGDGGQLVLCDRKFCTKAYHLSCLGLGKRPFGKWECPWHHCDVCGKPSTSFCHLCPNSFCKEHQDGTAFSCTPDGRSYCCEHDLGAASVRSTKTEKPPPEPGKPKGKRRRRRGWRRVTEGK
Type of assay: biochemical.

The structures appear in SMILES notation. The source made the active and inactive calls. For most assays here, no stated cut-off is given here; in the data, actives have a measured EC50 and inactives only a lower limit.

Chain of Induced myeloid leukemia cell differentiation protein Mcl-1 (Q07820 whole entry): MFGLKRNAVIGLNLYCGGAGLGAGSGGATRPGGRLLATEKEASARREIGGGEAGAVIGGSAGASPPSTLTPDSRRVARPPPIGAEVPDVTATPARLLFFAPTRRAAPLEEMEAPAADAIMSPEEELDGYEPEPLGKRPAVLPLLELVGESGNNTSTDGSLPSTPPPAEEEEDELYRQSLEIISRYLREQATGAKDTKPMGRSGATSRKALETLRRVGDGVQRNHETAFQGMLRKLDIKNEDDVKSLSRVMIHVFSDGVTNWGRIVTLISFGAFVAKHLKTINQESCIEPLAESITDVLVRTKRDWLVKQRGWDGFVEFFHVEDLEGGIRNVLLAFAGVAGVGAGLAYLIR
Chain of Cytochrome P450 3A4 (P08684 whole entry): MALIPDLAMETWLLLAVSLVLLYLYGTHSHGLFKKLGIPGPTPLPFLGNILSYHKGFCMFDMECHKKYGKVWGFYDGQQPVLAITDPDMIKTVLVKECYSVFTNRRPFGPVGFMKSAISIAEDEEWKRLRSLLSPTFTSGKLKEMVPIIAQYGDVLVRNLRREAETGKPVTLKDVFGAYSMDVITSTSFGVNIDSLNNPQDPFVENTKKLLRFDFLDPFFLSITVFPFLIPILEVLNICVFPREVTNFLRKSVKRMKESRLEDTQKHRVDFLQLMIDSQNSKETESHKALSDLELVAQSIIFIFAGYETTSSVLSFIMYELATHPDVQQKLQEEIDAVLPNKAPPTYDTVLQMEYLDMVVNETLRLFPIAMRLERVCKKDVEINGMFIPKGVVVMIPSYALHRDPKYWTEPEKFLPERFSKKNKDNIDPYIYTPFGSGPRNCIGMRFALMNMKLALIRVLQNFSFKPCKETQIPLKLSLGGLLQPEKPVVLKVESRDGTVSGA
T1 sequence (P49327 whole entry): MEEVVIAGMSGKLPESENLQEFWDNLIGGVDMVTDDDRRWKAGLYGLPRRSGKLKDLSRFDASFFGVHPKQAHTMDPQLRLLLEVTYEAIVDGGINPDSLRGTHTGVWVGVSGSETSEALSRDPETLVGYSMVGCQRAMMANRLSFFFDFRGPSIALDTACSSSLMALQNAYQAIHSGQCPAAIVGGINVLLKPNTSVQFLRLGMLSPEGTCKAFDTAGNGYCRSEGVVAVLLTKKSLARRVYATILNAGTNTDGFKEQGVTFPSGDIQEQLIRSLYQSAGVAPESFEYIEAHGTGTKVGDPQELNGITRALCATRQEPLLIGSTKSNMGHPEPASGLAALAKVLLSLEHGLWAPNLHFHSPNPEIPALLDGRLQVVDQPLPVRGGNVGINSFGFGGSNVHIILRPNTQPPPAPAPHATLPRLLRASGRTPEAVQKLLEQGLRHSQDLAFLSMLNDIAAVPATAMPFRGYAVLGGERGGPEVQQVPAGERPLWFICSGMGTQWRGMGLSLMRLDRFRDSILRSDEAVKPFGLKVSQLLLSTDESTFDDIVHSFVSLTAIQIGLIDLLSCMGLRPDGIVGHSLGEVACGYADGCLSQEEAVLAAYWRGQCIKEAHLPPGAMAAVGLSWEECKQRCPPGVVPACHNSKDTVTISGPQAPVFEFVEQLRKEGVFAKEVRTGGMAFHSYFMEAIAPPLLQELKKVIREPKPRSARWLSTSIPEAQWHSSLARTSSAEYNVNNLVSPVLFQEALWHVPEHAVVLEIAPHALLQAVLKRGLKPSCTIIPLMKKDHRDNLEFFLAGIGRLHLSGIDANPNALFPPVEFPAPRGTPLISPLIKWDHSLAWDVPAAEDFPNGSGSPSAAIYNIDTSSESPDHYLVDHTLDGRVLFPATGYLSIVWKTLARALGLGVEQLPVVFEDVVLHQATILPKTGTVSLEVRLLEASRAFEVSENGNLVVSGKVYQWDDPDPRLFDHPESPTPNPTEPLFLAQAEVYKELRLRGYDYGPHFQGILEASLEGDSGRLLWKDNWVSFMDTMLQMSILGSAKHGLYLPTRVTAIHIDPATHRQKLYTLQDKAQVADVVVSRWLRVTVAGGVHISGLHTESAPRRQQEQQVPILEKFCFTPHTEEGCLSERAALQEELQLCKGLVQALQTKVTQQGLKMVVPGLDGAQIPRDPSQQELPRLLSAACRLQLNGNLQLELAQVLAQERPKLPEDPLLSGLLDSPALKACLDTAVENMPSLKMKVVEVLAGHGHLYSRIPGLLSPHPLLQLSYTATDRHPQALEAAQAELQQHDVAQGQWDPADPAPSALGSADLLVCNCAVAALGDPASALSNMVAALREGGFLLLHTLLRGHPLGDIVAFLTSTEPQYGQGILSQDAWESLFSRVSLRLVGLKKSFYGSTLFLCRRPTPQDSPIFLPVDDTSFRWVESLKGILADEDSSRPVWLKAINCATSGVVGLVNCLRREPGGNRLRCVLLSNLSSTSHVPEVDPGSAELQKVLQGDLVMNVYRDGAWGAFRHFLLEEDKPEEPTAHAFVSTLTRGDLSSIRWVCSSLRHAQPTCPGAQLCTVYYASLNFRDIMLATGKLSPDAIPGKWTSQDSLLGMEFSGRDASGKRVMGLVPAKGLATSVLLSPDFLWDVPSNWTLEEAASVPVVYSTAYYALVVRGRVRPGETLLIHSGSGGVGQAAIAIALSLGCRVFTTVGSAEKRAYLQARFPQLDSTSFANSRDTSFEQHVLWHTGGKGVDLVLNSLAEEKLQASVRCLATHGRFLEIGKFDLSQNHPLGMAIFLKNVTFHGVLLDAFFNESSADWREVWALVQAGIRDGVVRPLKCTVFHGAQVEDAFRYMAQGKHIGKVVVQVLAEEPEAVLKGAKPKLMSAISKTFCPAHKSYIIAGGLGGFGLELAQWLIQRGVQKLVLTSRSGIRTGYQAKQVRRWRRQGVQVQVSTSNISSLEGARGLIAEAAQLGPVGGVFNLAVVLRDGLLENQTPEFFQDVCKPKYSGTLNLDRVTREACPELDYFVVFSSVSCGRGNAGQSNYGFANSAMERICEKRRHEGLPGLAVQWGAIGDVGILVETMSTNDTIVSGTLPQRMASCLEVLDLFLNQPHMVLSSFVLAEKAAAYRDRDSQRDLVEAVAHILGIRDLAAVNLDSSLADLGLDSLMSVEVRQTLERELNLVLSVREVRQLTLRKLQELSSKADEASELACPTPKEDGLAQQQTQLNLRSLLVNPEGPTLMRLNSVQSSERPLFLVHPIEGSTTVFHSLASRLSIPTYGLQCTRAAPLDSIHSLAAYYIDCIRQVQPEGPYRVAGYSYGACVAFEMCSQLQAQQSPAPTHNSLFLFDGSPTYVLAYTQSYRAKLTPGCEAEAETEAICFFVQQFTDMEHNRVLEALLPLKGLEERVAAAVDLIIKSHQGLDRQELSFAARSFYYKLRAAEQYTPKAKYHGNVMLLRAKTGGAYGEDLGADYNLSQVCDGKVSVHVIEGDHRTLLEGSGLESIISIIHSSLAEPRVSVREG
Chain of Luciferin 4-monooxygenase (P08659 whole entry): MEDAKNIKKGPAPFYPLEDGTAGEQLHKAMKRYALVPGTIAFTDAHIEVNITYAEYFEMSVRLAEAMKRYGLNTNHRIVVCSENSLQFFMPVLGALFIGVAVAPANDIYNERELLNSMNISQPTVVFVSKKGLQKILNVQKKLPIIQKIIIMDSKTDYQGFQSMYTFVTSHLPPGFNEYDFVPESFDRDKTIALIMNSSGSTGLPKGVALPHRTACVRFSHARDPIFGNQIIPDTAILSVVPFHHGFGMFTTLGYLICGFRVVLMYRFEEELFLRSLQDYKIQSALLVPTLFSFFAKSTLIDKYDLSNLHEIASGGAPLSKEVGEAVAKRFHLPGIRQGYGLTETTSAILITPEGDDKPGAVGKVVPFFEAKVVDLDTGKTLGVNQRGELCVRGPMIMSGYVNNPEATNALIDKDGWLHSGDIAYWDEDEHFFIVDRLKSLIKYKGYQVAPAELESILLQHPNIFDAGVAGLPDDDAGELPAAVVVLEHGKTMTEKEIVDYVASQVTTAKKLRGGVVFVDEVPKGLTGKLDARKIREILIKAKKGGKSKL
Chain of Genome polyprotein (P29990 2492-3391 limits assumed): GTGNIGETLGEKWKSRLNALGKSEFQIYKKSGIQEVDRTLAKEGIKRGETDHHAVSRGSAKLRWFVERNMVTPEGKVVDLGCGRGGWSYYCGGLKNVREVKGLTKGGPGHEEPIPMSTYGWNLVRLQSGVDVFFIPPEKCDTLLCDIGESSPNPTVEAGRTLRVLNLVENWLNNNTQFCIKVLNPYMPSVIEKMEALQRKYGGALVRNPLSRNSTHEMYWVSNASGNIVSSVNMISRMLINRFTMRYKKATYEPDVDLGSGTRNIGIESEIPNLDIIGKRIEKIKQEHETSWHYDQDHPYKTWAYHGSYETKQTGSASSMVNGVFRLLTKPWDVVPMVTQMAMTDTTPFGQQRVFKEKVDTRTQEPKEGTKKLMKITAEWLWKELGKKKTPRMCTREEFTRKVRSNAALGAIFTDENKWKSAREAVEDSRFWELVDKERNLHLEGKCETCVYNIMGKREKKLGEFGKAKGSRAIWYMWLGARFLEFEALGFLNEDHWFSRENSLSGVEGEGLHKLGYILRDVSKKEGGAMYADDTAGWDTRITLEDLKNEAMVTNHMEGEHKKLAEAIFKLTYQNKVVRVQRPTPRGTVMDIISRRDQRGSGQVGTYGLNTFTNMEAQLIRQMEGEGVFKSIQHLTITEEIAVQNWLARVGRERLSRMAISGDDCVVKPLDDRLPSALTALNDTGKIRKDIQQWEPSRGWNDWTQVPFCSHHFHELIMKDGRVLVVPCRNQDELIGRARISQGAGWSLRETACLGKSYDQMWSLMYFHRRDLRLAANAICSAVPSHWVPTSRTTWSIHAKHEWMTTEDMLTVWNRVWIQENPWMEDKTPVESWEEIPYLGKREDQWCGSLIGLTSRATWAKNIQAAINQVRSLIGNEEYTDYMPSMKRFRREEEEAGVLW

As to `CCOc1ccc(S(=O)(=O)N2c3ccccc3CC2C)cc1` (configuration not stated), the values for the concentration for a half-maximal effect (EC50) in [1], in assay [2] and in assay [4] were 7.42 µM (active), 3.2 µM (active) and 7.65 µM (inconclusive), respectively. For the same compound, the IC50 in [3] is > 80 µM (inactive).
For the compound `CCC(=O)N1CCc2cc(S(=O)(=O)NCCC(=O)N3CCN(c4cccc(OC)c4)CC3)ccc21`, the concentration for a half-maximal effect (EC50) in assay [5] and in [6] was > 350 µM (not active) throughout.
Take `Cn1c(CNc2ccccc2O)nc2ccccc21`: the IC50 in assay [7] was 4.79 µM (active). In assay [8], the CC50 is 30.4 µM (active).
Consider `Cc1cc(S(=O)(=O)ON2C(=O)c3ccccc3C2=O)ccc1F`, for which the 50% inhibitory concentration (IC50) in assay [9] was 2.07 µM (active); in assay [10], 2.43 µM (active); in [13] it was > 100 µM (active). The EC50 in assay [11] was > 112 µM (not active); in assay [12] it was > 112 µM (not active); in assay [5], > 350 µM (not active); in [6] it was > 350 µM (not active).
Take `O=C(CSc1nnc(-c2ccncc2)o1)N1CCCCCC1`: the 50% effective concentration (EC50) in assay [5] and in [6] was > 350 µM (not active) throughout.
`N=C(NOC(=O)Cc1cccs1)c1ccccc1`: the EC50 in assay [14] was 9.96 µM (active); in assay [5], > 350 µM (not active); in assay [15], 3.81 µM (active); in assay [6], 20.7 µM (active); in assay [16], 11.1 µM (active).
As for `CCCCC(CC)COCCCN` (configuration not stated), the concentration at half-maximal activity (AC50) in assay [17] is 31.6 µM (inconclusive).
For the compound `COc1c(O)cc2c(-c3ccccc3)cc(=O)oc2c1OC` [KUHLMANNIN], the AC50 in [17] was 31.6 µM (inconclusive).
For `COC(=O)c1ccc(CN2[C@H](C(=O)OC)C[C@@]3(O)[C@H](O)[C@H](O)[C@H](O)C[C@@H]23)cc1`, in assay [17], the half-maximal activity concentration (AC50) was 12.6 µM (inconclusive).
Consider `CCS(=O)(=O)N1CCN(C(C)CCc2ccccc2)CC1` (configuration not stated), for which the IC50 in assay [18] is on record as 6 µM (not active).
In the case of `COc1ccc2c(c1)c(C(=O)CN1CCc3ccccc3C1)c(C)n2C`, the EC50 in assay [5] and in [6] was > 350 µM (not active) in each case.
With `COc1ccc(Nc2ncnc3ccc(Br)cc23)c(OC)c1`, in assay [19], the EC50 was 0.354 µM (active). Further, the IC50 in assay [3] was > 80 µM (inactive).
Take `CNCc1ccccc1OCc1ccccc1F`: the AC50 in assay [20] is > 20 µM (inactive). Besides, the concentration for half-maximal inhibition (IC50) in assay [18] was 0.557 µM (active).
Turning to `COc1ccc(/C=C/CN2CCC(CO)(Cc3ccccc3Cl)CC2)cc1`, the CC50 in assay [8] is 32.7 µM (active).
`COC(=O)[C@@]1(C)C[C@@H]1[C@@H](NC(=O)[C@@]1(C)C[C@@H]1[C@@H](NC(=O)[C@@]1(C)C[C@@H]1[C@@H](NC(=O)[C@@]1(C)C[C@@H]1[C@@H](NC(=O)OCc1ccccc1)c1ccccc1)c1ccccc1)c1ccccc1)c1ccccc1`: the AC50 in [17] was 0.2 µM (inconclusive).
With `O=C1NC(=S)N/C1=C/c1cccn1-c1ccc([N+](=O)[O-])cc1`, the concentration for half-maximal inhibition (IC50) in assay [18] is recorded as 4.63 µM (not active).
For `CC1(C)C2(Cl)C(Cl)C(Cl)C(Cl)(C(Cl)Cl)C1(Cl)C2Cl` (configuration not stated) [STROBANE], the concentration at half-maximal activity (AC50) in [17] was 15.8 µM (inconclusive).
In the case of `CCCn1c(-c2ccc(F)cc2)nc2c(N(C)CCN(C)C)nc(C)nc21`, in assay [17], the AC50 is 25.1 µM (inconclusive).
